# Measurements from patent publication US20140109520A1, “BEVERAGE FILLING METHOD AND APPARATUS” (DAI NIPPON PRINTING CO., LTD., priority 2008, published 2014).
# Where two headings read alike, the source gives them in different places.
# Legend:
# [1] = tested on: B. subtilis var. niger ATCC9372
# Excerpt: Evaluation method to the measurement was as follows.
# Sterilization Effects (Log Reduction)=Log(Number of Adhering Bacteria/Number of Survived Bacteria)
# Index Bacteria: B. subtilis var. niger ATCC9372
# [2] = tested on: B. subtilis spore
# Excerpt: Effects attained by the container sterilization method of the present invention will be compared with effects attained by the conventional sterilization method as in the following Table 2.
# (§1) In the column “No” in the above Table 2, A1, A2, A3, B1, B2 denotes bottle sample numbers, in which A1, A2 and A3 correspond to the conventional sterilization method, and B1 and B2 correspond to the third embodiment of the present invention mentioned above.
# The column “Log Reduction” represents LRV (Logarithmic Reduction Value) as to B. subtilis spore.
# [3] = tested on: bacteria adhering to the inner surfaces of the preforms; settings: for Number of bacteria adhering on inner surface of preform 10^3: 10^3 bacteria; for Number of bacteria adhering on inner surface of preform 10^4: 10^4 bacteria; for Number of bacteria adhering on inner surface of preform 10^5: 10^5 bacteria
# Excerpt: as §1
# [4] = for Remaining hydrogen peroxide: 500 mL PET bottle, 30 μL hydrogen peroxide
# [5] = 2 sec from hydrogen peroxide spray to air-rinse
# [6] = 5 sec from hydrogen peroxide spray to air-rinse
# [7] = bottle sample A1, conventional method, H2O2 mist 50 μL/bottle, H2O2 in air 0.0 mg/L, using amount 170 mL/min
# [8] = bottle sample A2, conventional method, H2O2 mist 100 μL/bottle, H2O2 in air 0.0 mg/L, using amount 340 mL/min
# [9] = bottle sample B1, third embodiment, H2O2 mist 50 μL/bottle, H2O2 in air 3.3 mg/L, using amount 230 mL/min
# [10] = bottle sample A2, conventional method, H2O2 mist 100 μL/bottle, H2O2 in air 0.0 mg/L
# [11] = bottle sample A3, conventional method, H2O2 mist 150 μL/bottle, H2O2 in air 0.0 mg/L
# [12] = bottle sample B1, third embodiment, H2O2 mist 50 μL/bottle, H2O2 in air 3.3 mg/L
# [13] = bottle sample B2, third embodiment, H2O2 mist 50 μL/bottle, H2O2 in air 5 mg/L
# [14] = 0.5 sec from hydrogen peroxide spray to air-rinse
smiles,measurement,setting,value
OO [hydrogen peroxide],Judgment (log reduction),[1]; [5],∘
same,Judgment (log reduction),[1]; [6],∘
same,Judgment Sterilization performance,[2]; [7],X (LVR being less than 6)
same,Log reduction,[2]; [7],<3.4
same,Judgment Sterilization performance,[2]; [8],◯ (shows LRV being 6)
same,Log reduction,[2]; [8],6.0
same,Log reduction,"[2]; bottle sample A3, conventional method, H2O2 mist 150 μL/bottle, H2O2 in air 0.0 mg/L, using amount 510 mL/min",>6.0
same,Judgment Sterilization performance,[2]; [9],◯ (shows LRV being 6)
same,Log reduction,[2]; [9],6
same,Log reduction,"[2]; bottle sample B2, third embodiment, H2O2 mist 50 μL/bottle, H2O2 in air 5 mg/L, using amount 280 mL/min",>6.0
same,sterilization effect LRV,"[2]; conventional method, hydrogen peroxide of 340 mL/min. to 510 mL/min.",6
same,sterilization effect LRV,"[2]; method of the present invention, hydrogen peroxide of 230 mL/min. to 260 mL/min.",6
same,Number of bacteria adhering on inner surface of preform 10^3,[3]; [10],◯◯◯
same,Number of bacteria adhering on inner surface of preform 10^4,[3]; [10],◯◯◯
same,Number of bacteria adhering on inner surface of preform 10^5,[3]; [10],◯◯[…]
same,Number of bacteria adhering on inner surface of preform 10^3,[3]; [11],◯◯◯
same,Number of bacteria adhering on inner surface of preform 10^4,[3]; [11],◯◯◯
same,Number of bacteria adhering on inner surface of preform 10^5,[3]; [11],◯◯◯
same,Number of bacteria adhering on inner surface of preform 10^3,[3]; [12],◯◯◯
same,Number of bacteria adhering on inner surface of preform 10^4,[3]; [12],◯◯◯
same,Number of bacteria adhering on inner surface of preform 10^5,[3]; [12],◯◯[…]
same,Number of bacteria adhering on inner surface of preform 10^3,[3]; [13],◯◯◯
same,Number of bacteria adhering on inner surface of preform 10^4,[3]; [13],◯◯◯
same,Number of bacteria adhering on inner surface of preform 10^5,[3]; [13],◯◯◯
same,Judgment (remaining hydrogen peroxide),[4]; [14],∘
same,Remaining hydrogen peroxide,[4]; [14],0.3 ppm
same,Judgment (remaining hydrogen peroxide),[4]; [5],∘
same,Remaining hydrogen peroxide,[4]; [6],0.9 ppm
same,density of the hydrogen peroxide adhering to the surface of the bottle,bottle temperature 65° C.,~80 weight %
same,density of the hydrogen peroxide adhering to the surface of the bottle,bottle temperature 80° C.,~90 weight %
